According to patent US20200031778A1, “NOVEL 5-SUBSTITUTED IMIDAZOLYLMETHYL DERIVATIVES” (Bayer CropScience Aktiengesellschaft, priority 2016, published 2020):

Experiment: Log P by HPLC on reversed phase columns (EEC directive 79/831 Annex V.A8; methods [a], [b], [c])
Assay type: physicochemical
Details: not given
In short: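 Log P derived from retention times, interpolated linearly between bracketing straight-chain alkan-2-ones (3–16 carbons) of known Log P. Eluents ran acetonitrile 10% to 95% against water with 0.1% formic acid ([a], acidic), 0.001 M ammonium acetate ([b], neutral) or 0.1% phosphoric acid ([c], acidic); UV read-out.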

Structure (SMILES) | LogP
C[Si](C)(C)C=CC(O)(Cn1cncc1C(F)(F)F)C1(Cl)CC1 (centres unmarked) [I-690] | 3.85^[a]
N#Cc1cncn1CC(O)c1ccc(Oc2c(F)cc(Cl)cc2F)nc1C(F)(F)F (centres unmarked) [I-135] | 3.23^[a]
CC(C)CC#CC(O)(Cn1cncc1C#N)C1(F)CC1 (centres unmarked) [I-540] | 2.25^[a]
CC(O)(Cn1cncc1F)c1cnc(Oc2ccc(Br)cc2)cc1C(F)(F)F (single isomer, unassigned) [I-220] | 2.37^[a]
N#Cc1cncn1CC(O)(c1ccc(C2CC2)cc1Cl)C1(Cl)CC1 (centres unmarked) [I-332] | 2.88^[a]
OC(Cn1cncc1Br)c1ccc(Oc2ccc(I)cc2)cc1Cl (centres unmarked) [I-28] | 2.88^[a]
N#Cc1cncn1CC(O)(c1cc(F)c(F)cc1Br)C1(F)CC1 (centres unmarked) [I-688] | 2.36^[a]
CCCC(O)(Cn1cncc1C#N)c1ccc(C2CC2)cc1Cl (centres unmarked) [I-407] | 3.19^[a]
N#Cc1cncn1CC(O)(C#CCC1CCCCC1)C1CC1 (centres unmarked) [I-591] | 3.02^[a]
OC(Cn1cncc1F)c1ccc(Oc2ccc(S(F)(F)(F)(F)F)cc2)nc1C(F)(F)F (centres unmarked) [I-147] | 2.59^[a]
CCOC(Cn1cncc1C#N)c1ccc(Oc2ccc(Br)cc2)cc1C(F)(F)F (centres unmarked) [I-91] | 4.69^[a]
OC(C#CCC1CCCCC1)(Cn1cncc1C(F)(F)F)C1(Cl)CC1 (centres unmarked) [I-601] | 4.05^[a]
N#Cc1cncn1CC(O)(c1c(F)cc(F)cc1Br)C1(Cl)CC1 (centres unmarked) [I-566] | 2.49^[a]
OC(CCC1CCCC1)(Cn1cncc1C(F)(F)F)C1(Cl)CC1 (centres unmarked) [I-674] | 4.10^[a]
CCCCC(O)(Cn1cncc1C#N)c1ccc(C(F)(F)F)cc1 (centres unmarked) [I-277] | 2.94^[a]
C[Si](C)(C#CC(O)(Cn1cncc1C#N)C1(F)CC1)c1ccccc1 (centres unmarked) [I-595] | 3.04^[a]
OC(Cn1cncc1Br)c1ccc(Oc2ccc(I)cc2)cc1Br (centres unmarked) [I-109] | 2.78^[a]
CCOC(Cn1cncc1F)c1cnc(Oc2ccc(Cl)cc2)cc1C(F)(F)F (centres unmarked) [I-132] | 3.15^[a]
C[Si](C)(CCC(O)(Cn1cncc1C#N)C1(Cl)CC1)c1ccccc1 (centres unmarked) [I-667] | 3.70^[a]
C[Si](C)(C)C#Cc1ccc(C(O)(Cn2cncc2C#N)C2(Cl)CC2)c(Cl)c1 (centres unmarked) [I-366] | 4.24^[a]
CC(C)(C)CC(O)(Cn1cncc1C#N)c1ccc(F)cc1Cl (centres unmarked) [I-259] | 3.39^[a]
N#Cc1cncn1CC(O)(CC1CC1)c1cc(F)c(F)c(Cl)c1 (centres unmarked) [I-492] | 2.71^[a]

Structure (SMILES) | LogP
N#Cc1cncn1CC(O)(c1cc(F)cc(Cl)c1F)C1(F)CC1 (centres unmarked) [I-613] | 2.29^[a]
N#Cc1cncn1CC(O)(CC1CC1)c1cnc(Cl)cc1Cl (centres unmarked) [I-510] | 2.07^[a]
C/C=C(\C)C(O)(Cn1cncc1C#N)c1ccc(F)cc1F (centres unmarked) [I-396] | 2.41^[a]
CCCCCCC(O)(Cn1cncc1C#N)C1(F)CC1 (centres unmarked) [I-399] | 3.00^[a]
N#Cc1cncn1CC(O)(c1ccc(C#CC2CC2)cc1F)C1(Cl)CC1 (centres unmarked) [I-651] | 3.11^[a]
CC(O)(Cn1cncc1C#N)c1ccc(Oc2ccc(C(F)(F)F)cc2)nc1C(F)(F)F (centres unmarked) [I-312] | 3.25^[a]
CC(C)C(O)(Cn1cncc1C#N)C1(F)CC1 (centres unmarked) [I-380] | 1.78^[a]
N#Cc1cncn1CC(O)c1ccc(Oc2ccc(C(F)(F)F)nc2)nc1C(F)(F)F (centres unmarked) [I-143] | 2.56^[a]
N#Cc1cncn1CC(O)(c1ccc(C#CC2CCCC2)cc1F)C1(Cl)CC1 (centres unmarked) [I-649] | 3.99^[a]
N#Cc1cncn1CC(O)(c1ccc(Cl)cc1Cl)C1(F)CC1 (centres unmarked) [I-237] | 2.51^[a]
N#Cc1cncn1CC(O)(CC1CC1)c1c(F)cccc1F (centres unmarked) [I-513] | 2.18^[a]
N#Cc1cncn1CC(O)(c1ccc(C#CC2CC2)cc1F)C1(F)CC1 (centres unmarked) [I-643] | 2.92^[a]
CC(O)(Cn1cncc1F)c1ccc(Oc2ccc(S(F)(F)(F)(F)F)cc2)nc1C(F)(F)F (centres unmarked) [I-297] | 2.62^[a]
CCCC(O)(Cn1cncc1C#N)c1ccc(F)cc1Br (centres unmarked) [I-408] | 2.75^[a]
N#Cc1cncn1CC(O)(c1ccc(F)cc1F)C1CCCC1 (centres unmarked) [I-478] | 2.78^[a]
CC(C)(C)C(O)(Cn1cncc1C#N)c1cc(Br)cc(Br)c1 (centres unmarked) [I-490] | 3.39^[a]
CCOC(Cn1cncc1C#N)c1ccc(Oc2ccc(Cl)cc2)cc1Br (centres unmarked) [I-62] | 4.51^[a]
N#Cc1cncn1CC(O)(CCCC(Cl)CCl)C1(F)CC1 (centres unmarked) [I-678] | 2.54'^[a]
CC(O)(Cn1cncc1C#N)c1cnc(Oc2ccc(Br)cc2)cc1C(F)F (centres unmarked) [I-258] | 2.68^[a]
N#Cc1cncn1CC(O)c1ccc(Oc2ccc(C(F)(F)F)cc2)nc1 (centres unmarked) [I-129] | 2.55^[a]
N#Cc1cncn1CC(O)(c1c(F)ccc(F)c1F)C1(Cl)CC1 (centres unmarked) [I-615] | 2.23^[a]
OC(Cn1cncc1Br)c1ccc(Oc2ccccc2)cc1Cl (centres unmarked) [I-27] | 2.21^[a]

Structure (SMILES) | LogP
CC(C)(C)c1ccc(C(O)(Cn2cncc2C#N)C2(Cl)CC2)c(Cl)c1 (centres unmarked) [I-354] | 3.39^[a]
N#Cc1cncn1CC(O)(c1ccc(F)cc1Cl)C1CC1 (centres unmarked) [I-412] | 2.41^[a]
N#Cc1cncn1CC(O)(c1cc(Cl)cc(Cl)c1Cl)C1(F)CC1 (centres unmarked) [I-612] | 2.66^[a]
N#Cc1cncn1CC(O)(C#CC1(c2ccc(F)cc2)CC1)C1(Cl)CC1 (centres unmarked) [I-605] | 2.98^[a]
COC(Cn1cncc1C(F)(F)F)c1ccc(Oc2ccc(Cl)cc2)cc1F (centres unmarked) [I-93] | 4.34^[a]
CC(C)(C)C(O)(Cn1cncc1C#N)c1ccc(Cl)c(Cl)c1 (centres unmarked) [I-456] | 3.16^[a]
CCCCC(O)(Cn1cncc1C#N)c1ccc(F)cc1Cl (centres unmarked) [I-276] | 2.95^[a]
CC(O)(Cn1cncc1F)c1ccc(Oc2ccc(C(F)F)cc2)nc1C(F)(F)F (centres unmarked) [I-295] | 2.15^[a]
N#Cc1cncn1CC(O)(c1c(F)cc(F)cc1Cl)C1(Cl)CC1 (centres unmarked) [I-563] | 2.45^[a]
N#Cc1cncn1CC(O)(c1ccc(F)c(Cl)c1)C1(F)CC1 (centres unmarked) [I-444] | 2.39^[a]
N#Cc1cncn1CC(O)(c1ccc(Cl)cc1Br)C1CC1 (centres unmarked) [I-405] | 2.80^[a]
N#Cc1cncn1CC(O)(CC1CC1)c1ccc(Cl)c(Cl)c1 (centres unmarked) [I-488] | 2.78^[a]
CC(C)(C)C(O)(Cn1cncc1C#N)c1cc(F)cc(Cl)c1 (centres unmarked) [I-495] | 2.88^[a]
N#Cc1cncn1CC(O)c1ccc(Oc2ccc(Br)cn2)cc1Cl (centres unmarked) [I-70] | 2.63^[a]
N#Cc1cncn1CC(O)(c1cccc(Cl)c1Cl)C1(Cl)CC1 (centres unmarked) [I-337] | 2.52^[a]
CCCC(O)(Cn1cncc1C#N)c1ccc(Cl)cc1 (centres unmarked) [I-289] | 2.39^[a]
N#Cc1cncn1CC(O)(c1ccc(Oc2ccc(Cl)cc2)cc1Cl)C1(Cl)CC1 (centres unmarked) [I-391] | 3.78^[a]
OC(Cn1cncc1Br)c1ccc(Oc2ccc(Cl)cc2)cc1Cl (centres unmarked) [I-14] | 2.60^[a]
N#Cc1cncn1CC(O)c1cnc(Oc2ccc(C(F)(F)F)nc2)cc1C(F)(F)F (centres unmarked) [I-118] | 2.46^[a]
CC(O)(Cn1cncc1Br)c1ccc(Oc2ccc(Cl)cc2)cc1F (centres unmarked) [I-178] | 2.44^[a]
CC(C)(C)C(O)(Cn1cncc1C#N)c1cc(Cl)c(Cl)c(Cl)c1 (centres unmarked) [I-546] | 3.59^[a]
CC(O)(Cn1cncc1C#N)c1cnc(Oc2ccc(C(F)(F)F)cc2)cc1C(F)(F)F (centres unmarked) [I-251] | 3.51^[a]

Same assay, conditions: reversed phase HPLC column; method [a], HPLC on reversed phase columns

Structure (SMILES) | chromatographic logP
N#Cc1cncn1CC(O)(C=CC1CCCCC1)C1(Cl)CC1 (centres unmarked) [I-663, 1-[2-(1-chlorocyclopropyl)-4-cyclohexyl-2-hydroxybut-3-en-1-yl]-1H-imidazole-5-carbonitrile] | 3.48

Same assay, conditions: reversed phase HPLC column; method [a]: LC-UV, acidic range, 0.1% formic acid in water and acetonitrile as eluent (linear gradient from 10% to 95% acetonitrile)

Structure (SMILES) | chromatographic logP
N#Cc1cncn1CC(=O)c1ccco1 [IX-146] | 0.92
